Data on twelve compounds can be found in BindingDB's records for doi:10.1016/j.bioorg.2015.09.009 (Quaid-I-Azam University, 2015).

The term IC50 denotes the concentration that inhibits the measured activity by half.

One experiment addresses Acetylcholinesterase (Electrophorus electricus, UniProt O42275). The experiment is described as follows: AChE and BChE Inhibitory Activities.
Experiment [1] has as its target Carboxylic ester hydrolase (Equus caballus, UniProt Q9N1N9). Briefly: AChE and BChE Inhibitory Activities.

Carboxylic ester hydrolase, sequence (Q9N1N9 whole entry): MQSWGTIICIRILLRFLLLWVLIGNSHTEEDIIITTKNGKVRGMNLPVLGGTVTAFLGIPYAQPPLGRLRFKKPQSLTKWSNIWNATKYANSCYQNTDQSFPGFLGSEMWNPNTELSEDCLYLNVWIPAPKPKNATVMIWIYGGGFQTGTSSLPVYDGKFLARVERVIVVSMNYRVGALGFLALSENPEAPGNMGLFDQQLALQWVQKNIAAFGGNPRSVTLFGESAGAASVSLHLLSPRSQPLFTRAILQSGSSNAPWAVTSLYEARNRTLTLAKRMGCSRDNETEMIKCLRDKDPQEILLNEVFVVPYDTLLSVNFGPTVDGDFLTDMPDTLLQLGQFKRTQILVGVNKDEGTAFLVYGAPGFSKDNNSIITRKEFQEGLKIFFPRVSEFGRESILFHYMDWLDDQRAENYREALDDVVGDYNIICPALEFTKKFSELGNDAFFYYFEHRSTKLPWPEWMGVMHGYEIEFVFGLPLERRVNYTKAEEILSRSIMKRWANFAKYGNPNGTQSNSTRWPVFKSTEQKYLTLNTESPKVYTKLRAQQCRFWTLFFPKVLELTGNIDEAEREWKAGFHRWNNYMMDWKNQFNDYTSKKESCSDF
Acetylcholinesterase, sequence (O42275 whole entry): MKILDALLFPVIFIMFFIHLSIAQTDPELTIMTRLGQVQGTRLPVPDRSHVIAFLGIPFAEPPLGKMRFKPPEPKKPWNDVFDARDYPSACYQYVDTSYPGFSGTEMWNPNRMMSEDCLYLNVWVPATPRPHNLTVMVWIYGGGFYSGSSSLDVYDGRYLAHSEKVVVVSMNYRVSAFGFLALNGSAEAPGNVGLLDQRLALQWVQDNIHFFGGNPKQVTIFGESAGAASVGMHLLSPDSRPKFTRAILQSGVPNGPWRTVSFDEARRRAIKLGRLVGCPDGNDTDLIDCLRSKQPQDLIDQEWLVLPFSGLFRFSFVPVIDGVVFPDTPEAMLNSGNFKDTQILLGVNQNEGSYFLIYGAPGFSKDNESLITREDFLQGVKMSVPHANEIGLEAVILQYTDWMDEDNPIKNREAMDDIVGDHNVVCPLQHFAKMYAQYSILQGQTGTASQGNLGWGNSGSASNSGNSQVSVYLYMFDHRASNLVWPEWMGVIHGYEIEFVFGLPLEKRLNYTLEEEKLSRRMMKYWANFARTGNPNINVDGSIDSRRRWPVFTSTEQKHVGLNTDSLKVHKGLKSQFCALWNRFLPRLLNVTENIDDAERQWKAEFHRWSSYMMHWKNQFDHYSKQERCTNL

Regarding `O=C(NC(=S)Nc1cccc(Cl)c1Cl)c1cc2ccccc2oc1=O` [1-(2-Oxo-2H-chromene-3-carbonyl)-3-(2,3-dichlorophenyl)thiourea (2d)], the 50% inhibitory concentration (IC50) against Acetylcholinesterase worked out at 1.13 µM; in experiment [1], 31.6 µM.

Turning to `O=C(NC(=S)Nc1ccc(Cl)cc1Cl)c1cc2ccccc2oc1=O` [1-(2-Oxo-2H-chromene-3-carbonyl)-3-(2,4-dichlorophenyl)thiourea (2h)], the IC50 against Acetylcholinesterase turned out to be 6.21 µM; in experiment [1], 13.2 µM.

As to `O=C(NC(=S)Nc1ccccc1Cl)c1cc2ccccc2oc1=O` [1-(2-Oxo-2H-chromene-3-carbonyl)-3-(2-chlorophenyl)thiourea (2g)], the results for the IC50 (on Acetylcholinesterase; in experiment [1]) were 7.28 µM and 11.1 µM, respectively.

On to `COc1ccccc1NC(=S)NC(=O)c1cc2ccccc2oc1=O` [1-(2-Oxo-2H-chromene-3-carbonyl)-3-(2-methoxyphenyl)thiourea (2b)], for which the values for the IC50 (against Acetylcholinesterase; in experiment [1]) were 13.3 µM and 0.06 µM, respectively.

Regarding `O=C(NC(=S)Nc1ccccc1[N+](=O)[O-])c1cc2ccccc2oc1=O` [1-(2-Oxo-2H-chromene-3-carbonyl)-3-(2-nitrophenyl)thiourea (2j)], the IC50 was determined as 0.23 µM against Acetylcholinesterase and 26.1 µM in experiment [1].

On to `O=C(NC(=S)Nc1ccc(F)c(Cl)c1)c1cc2ccccc2oc1=O` [1-(2-Oxo-2H-chromene-3-carbonyl)-3-(3-chloro-4-fluorophenyl)thiourea (2f)], for which the IC50 against Acetylcholinesterase turned out to be 0.75 µM; in experiment [1] it was 0.84 µM.

In the case of `O=C(NC(=S)Nc1cccc(Cl)c1)c1cc2ccccc2oc1=O` [1-(2-Oxo-2H-chromene-3-carbonyl)-3-(3-chlorophenyl)thiourea (2e)], the values for the IC50 (against Acetylcholinesterase; in experiment [1]) were 0.04 µM and 1.25 µM, respectively.

As for `O=C(NC(=S)Nc1cccc(F)c1)c1cc2ccccc2oc1=O` [1-(2-Oxo-2H-chromene-3-carbonyl)-3-(3-fluorophenyl)thiourea (2c)], the results for the IC50 (against Acetylcholinesterase; in experiment [1]) were 17.2 µM and 16.2 µM, respectively.

As for `COc1cccc(NC(=S)NC(=O)c2cc3ccccc3oc2=O)c1` [1-(2-Oxo-2H-chromene-3-carbonyl)-3-(3-methoxyphenyl)thiourea (2k)], the IC50 came to 8.43 µM at Acetylcholinesterase and 53.2 µM in experiment [1].

For `Cc1cccc(NC(=S)NC(=O)c2cc3ccccc3oc2=O)c1` [1-(2-Oxo-2H-chromene-3-carbonyl)-3-(3-methylphenyl)thiourea (2a)], the IC50 at Acetylcholinesterase stood at 0.86 µM; in experiment [1] it was 2.15 µM.

With `O=C(NC(=S)Nc1ccc(Cl)cc1)c1cc2ccccc2oc1=O` [1-(2-Oxo-2H-chromene-3-carbonyl)-3-(4-chlorophenyl)thiourea (2i)], the IC50 at Acetylcholinesterase was found to be 5.1 µM; in experiment [1], 42.2 µM.

Consider `O=C(NC(=S)NC1CCCCC1)c1cc2ccccc2oc1=O` [1-(2-Oxo-2H-chromene-3-carbonyl)-3-(cyclohexyl)thiourea (2l)], for which the IC50 against Acetylcholinesterase came to 6.97 µM; in experiment [1], 12.2 µM.
